The nature of one series: in vivo. The note with it: rat, 10 mg/kg. How it is done:
This example relates to aerosol and intravenous administration of fluoroquinolones in saline. A rat pharmacokinetic model was used to compare intravenous and pulmonary administration of fluoroquinolones. […] Doses were administered via the lateral tail vein, or to the lung just above the tracheal bifurcation using a micro-spray aerosol device (Penn Century, Philadelphia, Pa.).
Approximately 0.3 ml blood samples were taken from 2-6 rats at each timepoint via an indwelling jugular vein cannula, and collected in lithium heparin tubes. Bronchial alveolar lavage (BAL) and lung tissue were collected following euthanasia. […] Sample concentrations were determined against a standard curve.

The test system of series [1] is P. aeruginosa NH57388A. The experiment in a line: MIC, broth microdilution. In kind it is cell-based. The note with it: P. aeruginosa NIH57388A CF. How it is done:
(§1) Bacterial strains MIC testing: P. aeruginosa ATCC 27853 and NH57388A were used in these studies. MICs were determined by a broth microdilution assay according to CLSI reference methods (Methods for dilution of antimicrobial susceptibility test for bacteria that grow aerobically. Seventh Edition: Clinical and Laboratory Standards Institute (2006) M&-A7, incorporated by reference in its entirety). Assays were performed in a final volume of 100 μl. The bacterial suspensions were adjusted to yield a cell density of 5×10^5 CFU/ml. Antibiotics were prepared at a concentration equivalent to twofold the highest desired final concentration in culture medium and were then diluted directly into 96-well microtiter plates. Microtiter plates were incubated for 24 h at 35° C. and were read by using a microtiter plate reader (Molecular Devices) at 600 nm as well as by visual observation by using a microtiter plate reading mirror.

In series [2] the test system is P. aeruginosa ATCC 27853. The experiment in a line: Acute mouse lung infection model. To be noted: mice; for survival rate: monitored over 9 days; for maximum dose, limited due to toxicity: aerosol route. How it is done:
Aerosol Administration of antibiotics: Antibiotics were aerosolized using a microspray aerosol device (MicroSprayer Model IA-C, PennCentury, Philadelphia, Pa.) attached to a FMJ-250 High-Pressure Syringe (PennCentury, Philadelphia, Pa.). […] For administration, each mouse was anesthetized (5% isoflurane in oxygen running at 4 L/min) and positioned securely at a 45-50° angle by the upper teeth, the microspray aerosol tip was inserted to the bifurcation and a 50 μl volume was administered.
The bacterial suspensions were adjusted to approximately 1-6×10^5 CFU/ml by correlation of the absorbance at 600 nm with predetermined plate counts. […] On day 4, mice were infected by intratracheal (IT) instillation of 0.05 ml of inoculum using a curved oral gavage tip attached to a 1 ml syringe. […] Antibiotics were aerosolized using a microspray aerosol device. All infections and aerosol treatments were performed under isoflurane anesthesia (5% isoflurane in oxygen running at 4 L/min). An untreated group of mice (n=8) was sacrificed prior to the initiation of treatment to determine baseline bacterial counts. […] The lungs were removed aseptically and homogenized (Pro200 homogenizer, Pro Scientific, Monroe, Conn.) in 1 ml of sterile saline. Serial 10-fold dilutions of the homogenized lung were plated on Mueller-hinton agar (MHA), and colonies counted.
In addition, due to the need for anesthesia for treatment, the maximum number of daily doses was limited to two.

In series [3] the test system is P. aeruginosa NH57388A. The series can be described thus: Chronic mouse lung infection model. In kind it is in vivo. The note with it: mice, aerosol tobramycin 60 mg/kg twice a day for three consecutive days. How it is done: Bacterial cells were harvested by centrifugation (23,000×g, 30 min, at 4° C.) and resuspended in 3-6 ml of MHB. The supernatant was collected and placed in 80° C. water-bath for 30 min. […] The precipitated alginate was collected with a sterile bacterial loop and washed several times in sterile saline. The purified alginate was then resuspended in 10 ml of sterile saline and stirred vigorously to form a homogeneous suspension. […] The bacterial suspension was diluted (1:10) in the alginate suspension to yield about 10^8 CFU/ml. […] On day 4, the mice were infected using a curved bead-tipped oral gavage attached to a 1 ml syringe while under isoflurane anesthesia.

For series [4] the following is noted: aerosol dose of […], adults with cystic fibrosis, Cooney et al. 1994; cited from earlier work.
The subject of series [5] is P. aeruginosa ATCC 27853. The series can be described thus: MIC, broth microdilution. To be noted: Pseudomonas aeruginosa, ATCC27853, P. aeruginosa ATCC27853. In kind it is cell-based. The procedure: as §1
[6] abbreviates: male, Sprague-Dawley, in vivo, inhaled or intranasal.
The mark [7] stands for this setting: male, Sprague-Dawley, in vivo, iv.
Where [8] appears, read: Pseudomonas aeruginosa, NH57388A, read-out: MIC.

In brackets after ≈: the same amount, converted by molar mass. Like-named read-outs stand apart in the source and are kept apart here.

The term AUC denotes the area under the concentration-time curve, a measure of exposure. The low end stands for low exposure, the high end for high exposure. The AUC(0-inf) is the area under the concentration-time curve extrapolated to infinity. A word on the MRT: it is a mean duration of stay, worked out from the concentration-time curve. One may read the half-life as the time needed for the level to fall by half in the phase considered. Broadly, the MIC is the lowest concentration that inhibits growth of the organism.

As to `CO/N=C1\CN(c2nc3c(cc2F)c(=O)c(C(=O)O)cn3C2CC2)CC1CN` (stereo not shown) [Gemifloxacin, gemifloxacin], in “in vivo” (male, Sprague-Dawley, in vivo), the “F, % from Lung vs IV” value is listed as 86% and the MAT is 0.65 h. Moreover, in “in vivo” (setting [6]), the exposure (AUC) was 140 µg·h/mL, the AUC(0-inf) is 5.86 µg·h/mL, the mean residence time MRT was 2.06 h and the half-life is 1.68 h. In “in vivo” (setting [7]), the exposure (AUC) was found to be 0.9 µg·h/mL, the AUC(0-inf) worked out at 4.54 µg·h/mL, the MRT is 1.41 h and the half-life is 1.04 h.

Regarding `NC[C@H]1O[C@H](O[C@H]2[C@H](O)[C@@H](O[C@H]3O[C@H](CO)[C@@H](O)[C@H](N)[C@H]3O)[C@H](N)C[C@@H]2N)[C@H](N)C[C@@H]1O` [Tobramycin, tobramycin], the results for the MIC in the series with P. aeruginosa NH57388A [1] and in the series with P. aeruginosa NH57388A [1] (setting [8]) were 0.5 mg/L (≈ 1.07 µM) and < 1 mg/L, respectively. For the same compound, the survival rate with P. aeruginosa ATCC 27853 [2] (aerosol 120 mg/kg/day (60 mg/kg BID)) was 60%. Also, in the series with P. aeruginosa ATCC 27853 [2], the “maximum dose, limited due to toxicity” value is listed as 60 mg/kg. Also, the “mean reductions in bacterial counts” value in the series on P. aeruginosa ATCC 27853 [2] (aerosol tobramycin 60 mg/kg twice a day for 2 consecutive days) amounted to 2.70 log CFU per lung. For the same compound, the “mean log CFU reductions” value in the series on P. aeruginosa NH57388A [3] was determined as 2.9 log CFU. Further, the bioavailability entry in series [4] is “about 9%”.

Turning to `O=C(O)c1cn(C2CC2)c2cc(N3CCNCC3)c(F)cc2c1=O` [Ciprofloxacin, ciprofloxacin], the MAT in “in vivo” (Aerosol, in saline) turned out to be 0.59 h.

With `CCn1cc(C(=O)O)c(=O)c2cc(F)c(N3CCNCC3)cc21` [Norfloxacin, norfloxacin], in “in vivo” (male, Sprague-Dawley, in vivo), the “F, % from Lung vs IV” value was 100% and the MAT was found to be 0 h. In addition, in the series “in vivo” (setting [6]), the AUC is 24.6 µg·h/mL, the AUC(0-inf) worked out at 4.46 µg·h/mL, the MRT is 1.29 h and the half-life is 1.13 h. Also, in the series “in vivo” (setting [7]), the AUC was determined as 0.8 µg·h/mL, the AUC(0-inf) was 4.65 µg·h/mL, the mean residence time MRT was 1.59 h and the half-life is 1.21 h.

Turning to `C[C@H]1[C@H](NC(=O)/C(=N\OC(C)(C)C(=O)O)c2csc(N)n2)C(=O)N1S(=O)(=O)O` [Aztreonam, aztreonam], the MIC against P. aeruginosa ATCC 27853 [5] and in the series on P. aeruginosa NH57388A [1] (setting [8]) was 4 mg/L (≈ 9.19 µM) in each case. In the series with P. aeruginosa ATCC 27853 [2] (aerosol 800 mg/kg/day (400 mg/kg BID)), the survival rate is 20%. For the same compound, in the series with P. aeruginosa ATCC 27853 [2] (aerosol aztreonam 400 mg/kg twice a day for 2 consecutive days), the “mean reductions in bacterial counts” value was determined as 0.24 log CFU per lung. Besides, the “maximum dose, limited due to toxicity” value with P. aeruginosa ATCC 27853 [2] amounted to 400 mg/kg.

As for `COc1c(N2CCNC(C)C2)c(F)cc2c(=O)c(C(=O)O)cn(C3CC3)c12` (stereo not shown) [Gatifloxacin, gatifloxacin], in “in vivo” (male, Sprague-Dawley, in vivo), the “F, % from Lung vs IV” value came to 100% and the MAT was found to be 0 h. For the same compound, in “in vivo” (setting [6]), the AUC was determined as 3.12 µg·h/mL, the AUC(0-inf) came out at 5.83 µg·h/mL, the MRT came to 1.34 h and the half-life was 1.13 h. In addition, in the series “in vivo” (setting [7]), the exposure (AUC) came out at 0.35 µg·h/mL, the area under the curve AUC(0-inf) stood at 5.31 µg·h/mL, the MRT is 1.39 h and the half-life was 1.06 h.
